In patent US7678913B2, “Ureas as factor Xa inhibitors” (Portola Pharmaceuticals, Inc., priority 2004, dated 2010):
pIC50: −log10 of the molar value.

Biological target: T1, human plasma protein factor Xa (Homo sapiens, UniProt P00742)
T1 construct: measure proteolytic activity of the enzyme (factor Xa); purchased Haematologic Technologies (Essex Junction, Vt.); host or cells: human plasma
Experiment: Factor Xa IC50 determination (cleavage of chromogenic substrate S-2765)
Format: biochemical
Conditions: fXa 1 nM, S-2765 100 μM, Tris buffered saline pH 7.4, room temperature
How it was run: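 Human plasma factor Xa (1 nM) preincubated 5 min at room temperature with inhibitor (0.01 nM–10 μM final) in Tris-buffered saline pH 7.4 with CaCl2, BSA and 5% DMSO. S-2765 added at 100 μM; pNA release at 405 nm over 2 min; initial velocities fitted to four-parameter equation for IC50, duplicates.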

T1 sequence (P00742 235-488 limits assumed): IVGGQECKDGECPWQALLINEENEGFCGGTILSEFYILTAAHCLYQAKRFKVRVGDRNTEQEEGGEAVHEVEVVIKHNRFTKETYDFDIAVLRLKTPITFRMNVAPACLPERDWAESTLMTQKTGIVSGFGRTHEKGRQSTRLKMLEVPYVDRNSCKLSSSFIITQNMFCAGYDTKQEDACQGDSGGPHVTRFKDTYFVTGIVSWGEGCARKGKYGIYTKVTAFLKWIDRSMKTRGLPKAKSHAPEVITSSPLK
T1 sequence (P00742 41-179 partner limits assumed): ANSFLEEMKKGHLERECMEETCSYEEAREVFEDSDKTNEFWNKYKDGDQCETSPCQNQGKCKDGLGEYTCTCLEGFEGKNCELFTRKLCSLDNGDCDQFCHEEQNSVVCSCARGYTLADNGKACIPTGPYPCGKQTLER

pIC50 | SMILES
6.30 to 7.00 | CN1CCCN(C2CCN(C(=O)[C@H](NC(=O)Nc3ccc(Cl)cc3)c3ccccc3)CC2)CC1 [Example 154, (2R) 4-(4-methylhomopiperazin-1-yl)piperidin-1-yl-2-phenyl-2-(4-chlorophenylaminocarbonylamino)-acetamide]
≥ 7.00 | N=C(c1ccc(NC(=O)C(NC(=O)Nc2ccc(Cl)cc2)c2ccccc2F)c(F)c1)N1CCCC1 (centres unmarked) [Example 47]
≥ 7.00 | COc1ccccc1C(NC(=O)Nc1ccc(Cl)cc1)C(=O)N1CCC(N2CCOCC2=O)CC1 (centres unmarked) [Example 148, 4-(3-morpholinon-4-yl)piperidin-1-yl-2-(2-methoxyphenyl)-2-(4-chlorophenylaminocarbonylamino)-acetamide]
≥ 7.00 | Cc1ccccc1C(NC(=O)Nc1ccc(Cl)cc1)C(=O)Nc1ccc(C(=O)N2CCSC2)cc1 (centres unmarked) [Example 97, N-[4-(thiazolidin-3-ylcarbonyl)phenyl]-2-(2-methylphenyl)-2-(4-chlorophenylaminocarbonylamino)-acetamide]
≥ 7.00 | CN(C)Cc1ccccc1-c1ccc(NC(=O)C(NC(=O)Nc2ccc(Cl)cc2)c2ccccc2F)c(F)c1 (centres unmarked) [Example 56, N-[4-(2-dimethylaminomethyl-phenyl)-2-fluorophenyl]-2-(2-fluorophenyl)-2-(4-chlorophenylaminocarbonylamino)-acetamide]
≥ 7.00 | N=C(c1ccc(NC(=O)C(NC(=O)Nc2ccc(Cl)cc2)c2ccccc2Cl)cc1)N1CCCC1 (centres unmarked) [Example 101]
≥ 7.00 | Cc1ccccc1C(NC(=O)Nc1ccc(Cl)cc1)C(=O)Nc1ccc(C(=O)N2CCCC2)cc1 (centres unmarked) [Example 94, N-[4-(pyrrolidin-1-ylcarbonyl)phenyl]-2-(2-methylphenyl)-2-(4-chlorophenylaminocarbonylamino)-acetamide]
≤ 6.30 | Cc1ccccc1C(NC(=O)Nc1ccc(Cl)cc1)C(=O)NC1CCN(C(C)C)CC1 (centres unmarked) [Example 90, N-(1-isopropylpiperidin-4-yl)-2-(2-methylphenyl)-2-(4-chlorophenylamino-carbonylamino)-acetamide]
≤ 6.30 | CN(C)C(=O)CC(NC(=O)Nc1ccc(Cl)cc1)C(=O)Nc1ccc(C2=NCCN2C)cc1 (centres unmarked) [Example 63, N-[4-(1-methyl-4,5-dihydro-1H-imidazol-2-yl)phenyl]-2-dimethylaminocarbonylmethyl-2-(4-chlorophenylaminocarbonylamino)-acetamide]
≥ 7.00 | CN(C)Cc1ccccc1-c1ccc(NC(=O)C(NC(=O)Nc2ccc(Br)cc2)c2ccccc2F)c(F)c1 (centres unmarked) [Example 57, N-[4-(2-dimethylaminomethyl-phenyl)-2-fluorophenyl]-2-(2-fluorophenyl)-2-(4-bromophenylaminocarbonylamino)-acetamide]
≥ 7.00 | CN(C)C(=N)c1ccc(NC(=O)C(NC(=O)Nc2ccc(Cl)cc2)c2ccccc2)c(F)c1 (centres unmarked) [Example 33, N-[4-(dimethylaminoimino)-2-fluorophenyl]-2-phenyl-2-(4-chlorophenylaminocarbonylamino)-acetamide]
≥ 7.00 | CNC(=N)c1ccc(NC(=O)C(NC(=O)Nc2ccc(Cl)cc2)c2ccccc2)c(F)c1 (centres unmarked) [Example 37, N-(4-methylaminoimino-2-fluorophenyl)-2-phenyl-2-(4-chlorophenylamino-carbonylamino)-acetamide]
6.30 to 7.00 | C#Cc1ccc(NC(=O)NC(C(=O)Nc2ccc(C3=NCCN3C)cc2)c2cccs2)cc1 (centres unmarked) [Example 18, N-[4-(1-methyl-4,5-dihydro-1H-imidazol-2-yl)phenyl]-2-(2-thienyl)-2-(4-ethynylphenylaminocarbonylamino)-acetamide]
≥ 7.00 | CN(C)C(=N)c1ccc(NC(=O)C(NC(=O)Nc2ccc(Cl)cc2)c2ccccc2I)cc1 (centres unmarked) [Example 116, N-[4-(dimethylaminoimino)phenyl]-2-(2-iodophenyl)-2-(4-chlorophenylaminocarbonylamino)-acetamide]
6.30 to 7.00 | CN1CCN=C1c1ccc(NC(=O)C(NC(=O)Nc2ccc(Cl)cc2)C(C)(C)C)cc1 (centres unmarked) [Example 3, N-[4-(1-methyl-4,5-dihydro-1H-imidazol-2-yl)phenyl]-2-(1,1-dimethylethyl)-2-(4-chlorophenylaminocarbonylamino)-acetamide]
≥ 7.00 | O=C(Nc1ccc(Cl)cc1)NC(C(=O)Nc1ccc(-c2cccc[n+]2[O-])cc1)c1ccccc1SC(F)(F)F (centres unmarked) [Example 123, N-[4-(N-oxo-pyridin-2-yl)phenyl]-2-(2-trifluoromethylthiophenyl)-2-(4-chlorophenylaminocarbonylamino)-acetamide]
≥ 7.00 | CN1CCC(N2CCN(C(=O)C(NC(=O)Nc3ccc(Cl)cc3)c3ccccc3Cl)CC2)CC1 (centres unmarked) [Example 104, N-[4-(1-methylpiperidin-4-yl)piperazin-1-yl]-2-(2-chlorophenyl)-2-(4-chlorophenylaminocarbonylamino)-acetamide]
≥ 7.00 | Cc1ccccc1C(NC(=O)Nc1ccc(Cl)cc1)C(=O)Nc1ccc(-c2cccc[n+]2[O-])cc1 (centres unmarked) [Example 88, N-[4-(N-oxo-pyridin-2-yl)phenyl]-2-(2-methylphenyl)-2-(4-chlorophenylaminocarbonylamino)-acetamide]
≥ 7.00 | N=C(c1ccc(NC(=O)C(NC(=O)Nc2ccc(Cl)cc2)c2ccccc2)cc1)N1CCC1 (centres unmarked) [Example 28]
≥ 7.00 | C#CCC(NC(=O)Nc1ccc(Cl)cc1)C(=O)Nc1ccc(C2=NCCN2C)cc1 (centres unmarked) [Example 129, N-[4-(1-methyl-4,5-dihydro-1H-imidazol-2-yl)phenyl]-2-propargyl-2-(4-chlorophenylaminocarbonylamino)-acetamide]
≥ 7.00 | COc1ccccc1C(NC(=O)Nc1ccc(Cl)cc1)C(=O)Nc1ccc(C(=N)N(C)C)cc1 (centres unmarked) [Example 112, N-[4-(dimethylaminoimino)phenyl]-2-(2-methoxyphenyl)-2-(4-chlorophenylaminocarbonylamino)-acetamide]
≥ 7.00 | O=C(Nc1ccc(Cl)cc1)NC(C(=O)Nc1ccc(-c2cccc[n+]2[O-])cc1)c1ccccc1OC(F)(F)F (centres unmarked) [Example 121, N-[4-(N-oxo-pyridin-2-yl)phenyl]-2-(2-trifluoromethoxyphenyl)-2-(4-chlorophenylaminocarbonylamino)-acetamide]
≥ 7.00 | N=C(c1ccc(NC(=O)C(NC(=O)Nc2ccc(Br)cc2)c2ccccc2F)cc1)N1CCCC1 (centres unmarked) [Example 44]
